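Dose response: 5 concentrations. Exposure: 48 h. Format: 96-well plates. Endpoint: linear interpolation; highest concentration if not reached. GI50: concentration for 50% inhibition of growth.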 Activity calls are given as the source filed them. No stated cut-off is given here; in the data, active = GI50 up to about 1.1 µM and inactive = higher.
What was measured:
Test in all cases: DTP human tumour cell line panel, 48 h
HOP-18 = test system: HOP-18
XF498 = test system: XF498
KM-20L2 = test system: KM-20L2
LXFL 529 = test system: LXFL 529
RXF 631 = test system: RXF 631
SNB-78 = test system: SNB-78
M19-MEL = test system: M19-MEL
DMS-114 = test system: DMS-114

`CC(C)(C)c1nc2c(o1)/C(=N\c1ccccc1)c1ccccc1C2=O` was tested, and the GI50 (HOP-18) was 9.53 µM (inactive), the GI50 (XF498) was 3.68 µM (inactive) and the GI50 (KM-20L2) was 27.8 µM (inactive). The GI50 (LXFL 529) was 5.48 µM (inactive), the GI50 (RXF 631) was 22.5 µM (inactive) and the GI50 (SNB-78) was 4.27 µM (inactive). For the same compound, the GI50 (M19-MEL) was 0.718 µM (active).
With `COc1c(OC(C)=O)cc2c(OC(C)=O)c1CC(C)CC(OC)C(O)C(C)/C=C(\C)C(OC(N)=O)C(OC)/C=C\C=C(/C)C(=O)N2` (stereo unspecified) the GI50 (HOP-18) was > 100 µM (inactive), the GI50 (XF498) was > 90.4 µM (inactive) and the GI50 (DMS-114) was > 64.7 µM (inactive). For the same compound, the GI50 (KM-20L2) was > 62.1 µM (inactive), the GI50 (LXFL 529) was 49 µM (inactive) and the GI50 (RXF 631) was > 100 µM (inactive). For the same compound, the GI50 (SNB-78) was > 100 µM (inactive) and the GI50 (M19-MEL) was > 76.4 µM (inactive).
With `CCOCc1cc(=O)c2cc3c(cc2o1)OC(C)(C)CC3` the GI50 (HOP-18) was > 100 µM (inactive), the GI50 (XF498) was > 100 µM (inactive) and the GI50 (DMS-114) was 62.7 µM (inactive). For the same compound, the GI50 (KM-20L2) was > 100 µM (inactive), the GI50 (LXFL 529) was 92.7 µM (inactive) and the GI50 (RXF 631) was > 100 µM (inactive). For the same compound, the GI50 (SNB-78) was > 100 µM (inactive) and the GI50 (M19-MEL) was > 100 µM (inactive).
With `CC1=C(C(=O)Nc2ccc(C)cc2)C(c2cccc([N+](=O)[O-])c2)C(C(=O)Nc2ccc(C)cc2)=C(C)N1` the GI50 (HOP-18) was 14.1 µM (inactive), the GI50 (XF498) was 17.8 µM (inactive) and the GI50 (DMS-114) was 22.5 µM (inactive). The GI50 (KM-20L2) was 19.4 µM (inactive), the GI50 (LXFL 529) was 27.7 µM (inactive) and the GI50 (RXF 631) was 17.2 µM (inactive). The GI50 (SNB-78) was 27.4 µM (inactive) and the GI50 (M19-MEL) was 20.8 µM (inactive).
With `Cc1cc(N(CCC#N)CCC#N)ccc1/N=N/c1ccccc1[N+](=O)[O-]` the GI50 (HOP-18) was > 100 µM (inactive), the GI50 (XF498) was 26.8 µM (inactive) and the GI50 (DMS-114) was > 100 µM (inactive). For the same compound, the GI50 (LXFL 529) was > 100 µM (inactive), the GI50 (RXF 631) was > 100 µM (inactive) and the GI50 (SNB-78) was > 100 µM (inactive). The GI50 (M19-MEL) was > 100 µM (inactive).
For `NNC(=O)N/N=C1\CN(c2ccc(Cl)cc2Cl)C(=O)C(=O)C1c1nc2ccccc2o1` (stereo unspecified), the GI50 (XF498) was > 100 µM (inactive), the GI50 (DMS-114) was > 100 µM (inactive) and the GI50 (KM-20L2) was > 100 µM (inactive). The GI50 (LXFL 529) was > 100 µM (inactive), the GI50 (RXF 631) was > 100 µM (inactive) and the GI50 (SNB-78) was 39.1 µM (inactive). For the same compound, the GI50 (M19-MEL) was > 100 µM (inactive).
`Oc1cc(-c2cccs2)nc2cc3c(cc12)OCO3` was tested, and the GI50 (HOP-18) was > 100 µM (inactive), the GI50 (XF498) was 3.54 µM (inactive) and the GI50 (DMS-114) was 3.93 µM (inactive). For the same compound, the GI50 (KM-20L2) was 15.9 µM (inactive), the GI50 (LXFL 529) was 4.79 µM (inactive) and the GI50 (RXF 631) was 28.2 µM (inactive). For the same compound, the GI50 (SNB-78) was 7.36 µM (inactive) and the GI50 (M19-MEL) was 3.34 µM (inactive).
For `CCOC(=O)C1C(=O)c2ccccc2CN1Cc1ccccc1` (stereo unspecified), the GI50 (HOP-18) was > 100 µM (inactive), the GI50 (XF498) was > 100 µM (inactive) and the GI50 (DMS-114) was > 100 µM (inactive). The GI50 (KM-20L2) was > 100 µM (inactive), the GI50 (LXFL 529) was > 100 µM (inactive) and the GI50 (RXF 631) was > 100 µM (inactive). For the same compound, the GI50 (SNB-78) was > 100 µM (inactive) and the GI50 (M19-MEL) was > 100 µM (inactive).

Reference: ChEMBL document CHEMBL1201862, “PubChem BioAssay data set” (2004)
